Data from ChEMBL document CHEMBL3808314, “Discovery and Optimization of Potent, Selective, and in Vivo Efficacious 2-Aryl Benzimidazole BCATm Inhibitors” (ACS Med Chem Lett, 2016).
The source made the active and inactive calls. The calls are words filed in the database; no cut-off is given here.

Tests used:
[1] = target: T1, Branched-chain-amino-acid aminotransferase, cytosolic (Homo sapiens, UniProt P54687); experiment: Inhibition of BCATc (unknown origin)
T1 sequence (P54687 whole entry): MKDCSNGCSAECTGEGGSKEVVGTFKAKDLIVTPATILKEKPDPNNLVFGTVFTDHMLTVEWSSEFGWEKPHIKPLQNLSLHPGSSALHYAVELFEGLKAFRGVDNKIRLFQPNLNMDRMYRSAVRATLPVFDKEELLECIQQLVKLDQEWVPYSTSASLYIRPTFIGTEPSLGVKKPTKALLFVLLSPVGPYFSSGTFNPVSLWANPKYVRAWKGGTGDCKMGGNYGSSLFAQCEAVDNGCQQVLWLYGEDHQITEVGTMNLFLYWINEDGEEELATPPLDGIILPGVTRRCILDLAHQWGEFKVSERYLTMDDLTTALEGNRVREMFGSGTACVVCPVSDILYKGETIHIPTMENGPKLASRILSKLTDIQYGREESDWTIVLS

[2] = Clearance in mouse blood at 1 mg/kg, iv; assay type: ADME, organism-based
[3] = Half life of compound in mouse at 1 mg/kg, iv; assay type: ADME, organism-based; settings: in vivo
[4] = Volume of distribution at steady state in mouse at 1 mg/kg, iv; assay type: ADME, organism-based; settings: in vivo, read-out: Vdss
[5] = AUC (0 to infinity) in mouse at 5 mg/kg, po; assay type: ADME, organism-based; design: dose 5 mg/kg, route oral, time infinity; settings: in vivo
[6] = Cmax in mouse at 5 mg/kg, po; assay type: ADME, organism-based; design: dose 5 mg/kg, route oral; settings: in vivo
[7] = Oral bioavailability in mouse at 5 mg/kg; assay type: ADME, organism-based; settings: in vivo
[8] = Plasma protein binding in mouse; assay type: ADME, cell-free; settings: read-out: PPB (converted)
[9] = tested on: Mus musculus; experiment: Increase in luecine level in C57Black/6J mouse serum at 300 mg/kg, po administered 5 hrs post fasting state followed by refeeding of amino acid mixture at 30 mins post dose measured after 1 hr by HPLC method; assay type: functional, organism-based
[10] = tested on: Mus musculus; experiment: Increase in isoluecine level in C57Black/6J mouse serum at 300 mg/kg, po administered 5 hrs post fasting state followed by refeeding of amino acid mixture at 30 mins post dose measured after 1 hr by HPLC method; assay type: functional, organism-based
[11] = tested on: Mus musculus; experiment: Increase in valine level in C57Black/6J mouse serum at 300 mg/kg, po administered 5 hrs post fasting state followed by refeeding of amino acid mixture at 30 mins post dose measured after 1 hr by HPLC method; assay type: functional, organism-based
[12] = tested on: Mus musculus; experiment: Increase in luecine level in po dosed C57Black/6J mouse serum administered 5 hrs post fasting state followed by refeeding of amino acid mixture at 6 hrs post dose measured after 1 hr by HPLC method relative to vehicle control; assay type: functional, organism-based
[13] = tested on: Mus musculus; experiment: Increase in isoluecine level in po dosed C57Black/6J mouse serum administered 5 hrs post fasting state followed by refeeding of amino acid mixture at 6 hrs post dose measured after 1 hr by HPLC method relative to vehicle control; assay type: functional, organism-based
[14] = tested on: Mus musculus; experiment: Increase in valine level in po dosed C57Black/6J mouse serum administered 5 hrs post fasting state followed by refeeding of amino acid mixture at 6 hrs post dose measured after 1 hr by HPLC method relative to vehicle control; assay type: functional, organism-based

| IC50 [1] | clearance [2] | half-life [3] | Vd [4] | AUC(0-inf) [5] | Cmax [6] | bioavailability [7] | fraction unbound [8] | SMILES | Activity [9] | Activity [10] | Activity [11] | Activity [12] | Activity [13] | Activity [14] |
| --- | --- | --- | --- | --- | --- | --- | --- | --- | --- | --- | --- | --- | --- | --- |
| 3.98 µM | 4 mL/min/kg | 3.7 h | 0.9 L/kg | 5810 ng·h/mL | 1650 ng/mL | 28% | 0.029 | CNC(=O)c1ccc2c(c1)nc(-c1ccccn1)n2[C@@H]1CCC[C@H](NC(=O)c2ccc(Br)s2)C1 (relative stereo) | Active | Active | Active | Dose-dependent effect | Dose-dependent effect | Dose-dependent effect |
| 1.26 µM | 23 mL/min/kg | 1.4 h | 1.3 L/kg | 338 ng·h/mL | 129 ng/mL | 10% | 0.005 | CNC(=O)c1ccc2c(c1)nc(-c1ccccc1SC)n2[C@@H]1CCC[C@H](NC(=O)c2ccc(Br)s2)C1 (relative stereo) |  |  |  |  |  |  |
